Assay results: patent publication US10695321B2, “Use of glycopyrrolate for treating tachycardia” (Heptares Therapeutics Limited, priority 2011, dated 2020)

System: subjects with COPD
Assay: Phase IIa placebo-controlled crossover dose-ranging study, heart rate (vital signs) after single inhaled dose
Type: in vivo, human
Conditions: for Adjusted Mean for Average Change in Heart Rate from Test day Baseline: ANCOVA
Experimental: The study was a Phase IIa, multi-centre, randomised, double-blind, placebo-controlled, crossover, dose-ranging study using four dose levels of glycopyrronium bromide in subjects with COPD. A total of 40 subjects were required to complete the study.
Subjects were randomised to receive a single inhaled dose of 20, 125, 250 and 400 μg of glycopyrronium bromide in ascending order, with a placebo dose randomised into the sequence over 5 study visits. Subjects were randomised to receive treatment on Study Day 1 prior to dosing. All doses, including placebo, were administered using the Miat Monohaler.
The Treatment period then consisted of five study visits (separated by a 5-14-day wash-out period), during which subjects were dosed with a single inhaled dose of glycopyrronium bromide using a Miat Monohaler, in ascending order (20, 125, 250 or 400 μg). A placebo was randomly administered (using a Miat Monohaler) at one of the study visits; subsequent visits continued with the next highest dose of glycopyrronium bromide to that which was administered prior to the placebo.
All subjects were scheduled to be dosed between 08:00 and 10:00 am. For individual subjects, dosing was at the same time of day (±30 minutes). At each dosing visit, subjects received a single dose of glycopyrronium bromide or placebo administered via Miat Monohaler. Each different dose (20, 125, 250 or 400 μg) was contained in one capsule. An appropriate number of Miat Monohalers to conduct the study was also supplied to the site. A new Miat Monohaler was used to administer each dose at each visit.
copyrronium bromide was presented in size 3, white opaque, hard, gelatin capsules packaged in aluminium pouches. The capsules were presented in four dose strengths containing 20, 125, 250, or 400 μg glycopyrronium bromide. In addition to glycopyrronium bromide, excipient present in the capsule formulation consisted of the PowderHale^TM formulation of lactose and magnesium stearate.
All vital signs were measured on each study day, including heart rate (with the subject semi-supine for 5 minutes prior to measurement); blood pressure; respiratory rate and temperature were measured at each visit and before receiving study medication (pre-treatment), if applicable. Blood pressure and heart rate were also measured at 45, 90 minutes and 5, 10, 20 and 30 hours post-treatment on study days.
The statistical analyses were to be reported using summary tables and data listings. Statistical tests for the evaluation were to be performed at the 0.05 significance level using a two-sided test.
All analyses and tabulations were to be performed using SASS Version 6.12 on a PC platform. Continuous variables were to be summarised with sample size (n), mean, standard deviation (SD), minimum, median, and maximum. […] The mean was to have one extra decimal place and the standard deviation was to have two extra decimal places. Categorical variables were to be summarised with number and percentage of subjects.

[1] = 20 μg single inhaled dose, 45 mins post-dose
[2] = 20 μg single inhaled dose, 90 mins post-dose
[3] = 20 μg single inhaled dose, 5 hrs post-dose
[4] = 20 μg single inhaled dose, 10 hrs post-dose
[5] = 20 μg single inhaled dose, 20 hrs post-dose
[6] = 20 μg single inhaled dose, 30 hrs post-dose
[7] = 20 μg single inhaled dose, pre-dose to 45 mins post-dose
[8] = 20 μg single inhaled dose, pre-dose to 90 mins post-dose
[9] = 20 μg single inhaled dose, pre-dose to 5 hours post-dose
[10] = 20 μg single inhaled dose, pre-dose to 10 hours post-dose
[11] = 20 μg single inhaled dose, pre-dose to 20 hours post-dose
[12] = 125 μg single inhaled dose, 45 mins post-dose
[13] = 125 μg single inhaled dose, 90 mins post-dose
[14] = 125 μg single inhaled dose, 5 hrs post-dose
[15] = 125 μg single inhaled dose, 10 hrs post-dose
[16] = 125 μg single inhaled dose, 20 hrs post-dose
[17] = 125 μg single inhaled dose, 30 hrs post-dose
[18] = 125 μg single inhaled dose, pre-dose to 45 mins post-dose
[19] = 125 μg single inhaled dose, pre-dose to 90 mins post-dose
[20] = 125 μg single inhaled dose, pre-dose to 5 hours post-dose
[21] = 125 μg single inhaled dose, pre-dose to 10 hours post-dose
[22] = 125 μg single inhaled dose, pre-dose to 20 hours post-dose
[23] = 125 μg single inhaled dose, pre-dose to 30 hours post-dose

For `C[N+]1(C)CCC(OC(=O)C(O)(c2ccccc2)C2CCCC2)C1` (stereo not drawn) [glycopyrronium bromide], the “Heart Rate Mean” value [1] was 70.3 bpm, the “Heart Rate Median” value [1] was 68.0 bpm and the “Heart Rate Mean” value [2] was 72.5 bpm. For the same molecule, the “Heart Rate Median” value [2] was 71.0 bpm, the “Heart Rate Mean” value [3] was 72.8 bpm and the “Heart Rate Median” value [3] was 74.0 bpm. For the same molecule, the “Heart Rate Mean” value [4] was 69.1 bpm, the “Heart Rate Median” value [4] was 68.0 bpm and the “Heart Rate Mean” value [5] was 68.8 bpm. The “Heart Rate Median” value [5] was 69.5 bpm, the “Heart Rate Mean” value [6] was 69.8 bpm and the “Heart Rate Median” value [6] was 70.0 bpm. For the same molecule, the “Heart Rate Change from Test day Baseline, Mean” value (“Heart Rate Change … Mean” below) [7] was −2.5 bpm, the “Heart Rate Change from Test day Baseline, Median” value (“Heart Rate Change … Median” for short) [7] was −2.0 bpm and the “Heart Rate Change … Mean” value [8] was −0.2 bpm. For the same molecule, the “Heart Rate Change … Median” value [8] was 0.0 bpm, the “Heart Rate Change … Mean” value [9] was −0.0 bpm and the “Heart Rate Change … Median” value [9] was 1.0 bpm. The “Heart Rate Change … Mean” value [10] was −3.4 bpm, the “Heart Rate Change … Median” value [10] was −1.0 bpm and the “Heart Rate Change … Mean” value [11] was −3.6 bpm. For the same molecule, the “Heart Rate Change … Median” value [11] was −3.0 bpm, the “Heart Rate Change … Mean” value (20 μg single inhaled dose, pre-dose to 30 hours post-dose) was −2.7 bpm and the “Adjusted Mean for Average Change in Heart Rate from Test day Baseline” value (shortened to “Adjusted Mean for Average Change”) (20 μg, to 45 mins post-dose) was −2.323 bpm. The “Dose v Placebo Difference, adjusted mean change in Heart Rate from Test day Baseline” value (20 μg, to 45 mins post-dose, p-value 0.997) was 0.005 bpm, the “Adjusted Mean for Average Change” value (20 μg, to 90 mins post-dose) was 0.033 bpm and the “Dose v Placebo Difference, adjusted mean change in Heart Rate from Test day Baseline” value (20 μg, to 90 mins post-dose, p-value 0.489) was −1.239 bpm. The “Adjusted Mean for Average Change” value (20 μg, to 5 hours post-dose) was 1.933 bpm, the “Dose v Placebo Difference, adjusted mean change in Heart Rate from Test day Baseline” value (20 μg, to 5 hours post-dose, p-value 0.945) was −0.114 bpm and the “Adjusted Mean for Average Change” value (20 μg, to 10 hours post-dose) was −0.126 bpm. For the same molecule, the “Dose v Placebo Difference, adjusted mean change in Heart Rate from Test day Baseline” value (20 μg, to 10 hours post-dose, p-value 0.349) was 1.698 bpm, the “Adjusted Mean for Average Change” value (20 μg, to 20 hours post-dose) was −4.339 bpm and the “Dose v Placebo Difference, adjusted mean change in Heart Rate from Test day Baseline” value (20 μg, to 20 hours post-dose, p-value 0.068) was −2.872 bpm. For the same molecule, the “Adjusted Mean for Average Change” value (20 μg, to 30 hours post-dose) was −0.880 bpm, the “Dose v Placebo Difference, adjusted mean change in Heart Rate from Test day Baseline” value (20 μg, to 30 hours post-dose, p-value 0.379) was −1.499 bpm and the “Heart Rate Mean” value [12] was 65.5 bpm. The “Heart Rate Median” value [12] was 63.5 bpm, the “Heart Rate Mean” value [13] was 67.6 bpm and the “Heart Rate Median” value [13] was 69.0 bpm. The “Heart Rate Mean” value [14] was 70.6 bpm, the “Heart Rate Median” value [14] was 73.0 bpm and the “Heart Rate Mean” value [15] was 67.0 bpm. The “Heart Rate Median” value [15] was 67.0 bpm, the “Heart Rate Mean” value [16] was 66.4 bpm and the “Heart Rate Median” value [16] was 66.0 bpm. The “Heart Rate Mean” value [17] was 72.1 bpm, the “Heart Rate Median” value [17] was 72.0 bpm and the “Heart Rate Change … Mean” value [18] was −3.8 bpm. The “Heart Rate Change … Median” value [18] was −4.0 bpm, the “Heart Rate Change … Mean” value [19] was −1.8 bpm and the “Heart Rate Change … Median” value [19] was −2.0 bpm. For the same molecule, the “Heart Rate Change … Mean” value [20] was 1.2 bpm, the “Heart Rate Change … Median” value [20] was 0.5 bpm and the “Heart Rate Change … Mean” value [21] was −2.1 bpm. The “Heart Rate Change … Median” value [21] was −3.0 bpm, the “Heart Rate Change … Mean” value [22] was −2.5 bpm and the “Heart Rate Change … Median” value [22] was −1.5 bpm. The “Heart Rate Change … Mean” value [23] was 2.8 bpm, the “Heart Rate Change … Median” value [23] was 1.0 bpm and the “Adjusted Mean for Average Change” value (125 μg, to 45 mins post-dose) was −2.854 bpm. For the same molecule, the “Dose v Placebo Difference, adjusted mean change in Heart Rate from Test day Baseline” value (125 μg, to 45 mins post-dose, p-value 0.712) was −0.526 bpm, the “Adjusted Mean for Average Change” value (125 μg, to 90 mins post-dose) was −0.650 bpm and the “Dose v Placebo Difference, adjusted mean change in Heart Rate from Test day Baseline” value (125 μg, to 90 mins post-dose, p-value 0.240) was −1.921 bpm. The “Adjusted Mean for Average Change” value (125 μg, to 5 hours post-dose) was 2.382 bpm, the “Dose v Placebo Difference, adjusted mean change in Heart Rate from Test day Baseline” value (125 μg, to 5 hours post-dose, p-value 0.826) was 0.335 bpm and the “Adjusted Mean for Average Change” value (125 μg, to 10 hours post-dose) was −0.186 bpm. For the same molecule, the “Dose v Placebo Difference, adjusted mean change in Heart Rate from Test day Baseline” value (125 μg, to 10 hours post-dose, p-value 0.339) was 1.638 bpm, the “Adjusted Mean for Average Change” value (125 μg, to 20 hours post-dose) was −1.590 bpm and the “Dose v Placebo Difference, adjusted mean change in Heart Rate from Test day Baseline” value (125 μg, to 20 hours post-dose, p-value 0.932) was −0.123 bpm. For the same molecule, the “Adjusted Mean for Average Change” value (125 μg, to 30 hours post-dose) was 2.796 bpm, the “Dose v Placebo Difference, adjusted mean change in Heart Rate from Test day Baseline” value (125 μg, to 30 hours post-dose, p-value 0.168) was 2.177 bpm and the “Heart Rate Mean” value (250 μg single inhaled dose, 45 mins post-dose) was 65.1 bpm.
